Measured values published in US7799785B2, “Substituted tetracyclic tetahydrofuran, pyrrolidine and tetrahydrothiophene derivatives” (Janssen Pharmaceutica NV, priority 2004, dated 2010).

Legend:
[1] = target: T1, human cloned 5-HT2A receptor, expressed in L929 cells (Homo sapiens, UniProt P28223); assay: In vitro radioligand binding affinity for 5-HT2A receptor ([125I]R91150); conditions: read-out: h-5HT2A (converted)
T1 construct: expressed in transfected cells; host or cells: L929 cells
Description: (§1) In vitro Binding Affinity for 5-HT2A and 5-HT2C Receptors
The interaction of the compounds of Formula (I) with 5-HT2A and 5-HT2C receptors was assessed in in vitro radioligand binding experiments. In general, a low concentration of a radioligand with a high binding affinity for the receptor is incubated with a sample of a tissue preparation enriched in a particular receptor (1 to 5 mg tissue) in a buffered medium (0.2 to 5 ml). During the incubation, the radioligands bind to the receptor. When equilibrium of binding is reached, the receptor bound radioactivity is separated from the non-bound radioactivity, and the receptor bound activity is counted. The interaction of the test compounds with the receptors is assessed in competition binding experiments. Various concentrations of the test compound are added to the incubation mixture containing the tissue preparation and the radioligand. Binding of the radioligand will be inhibited by the test compound in proportion to its binding affinity and its concentration. The affinities of the compounds for the 5-HT2 receptors were measured by means of radioligand binding studies conducted with: (a) human cloned 5-HT2A receptor, expressed in L929 cells using [^125I]R91150 as radioligand and (b) human cloned 5-HT2C receptor, expressed in CHO cells using [^3H]mesulergine as radioligand.

[2] = target: T2, human Dopamine D2L receptor (Homo sapiens, UniProt P14416); assay: In vitro binding affinity for human D2L receptor ([3H]Spiperone); conditions: human D2L receptor-transfected CHO cell membranes
T2 construct: expressed in transfected cells; host or cells: CHO cells
T2 sequence (P14416 whole entry): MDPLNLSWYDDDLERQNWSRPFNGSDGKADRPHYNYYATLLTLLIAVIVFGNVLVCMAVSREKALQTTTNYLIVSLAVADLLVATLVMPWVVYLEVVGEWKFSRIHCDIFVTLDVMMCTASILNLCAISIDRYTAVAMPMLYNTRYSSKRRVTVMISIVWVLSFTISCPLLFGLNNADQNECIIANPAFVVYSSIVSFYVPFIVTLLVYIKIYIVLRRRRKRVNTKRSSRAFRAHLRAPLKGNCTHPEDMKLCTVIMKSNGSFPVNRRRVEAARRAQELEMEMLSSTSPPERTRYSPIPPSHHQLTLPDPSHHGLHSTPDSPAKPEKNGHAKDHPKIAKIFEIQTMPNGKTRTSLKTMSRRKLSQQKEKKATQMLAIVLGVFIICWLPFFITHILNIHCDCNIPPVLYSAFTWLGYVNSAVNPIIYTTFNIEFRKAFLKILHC
Description: In vitro Binding Affinity for Human D2L Receptor
Frozen membranes of human Dopamine D2L receptor-transfected CHO cells were thawed, briefly homogenised using an Ultra-Turrax T25 homogeniser and diluted in Tris-HCl assay buffer containing NaCl, CaCl2, MgCl2, KCl (50, 120, 2, 1, and 5 mM respectively, adjusted to pH 7.7 with HCl) to an appropriate protein concentration optimised for specific and non-specific binding. Radioligand [^3H]Spiperone (NEN, specific activity ˜70 Ci/mmol) was diluted in assay buffer at a concentration of 2 nmol/L. Prepared radioligand (50 μl), along with 50 μl of either the 10% DMSO control, Butaclamol (10^−6 mol/l final concentration), or compound of interest, was then incubated (30 min, 37° C.) with 400 μl of the prepared membrane solution. Membrane-bound activity was filtered through a Packard Filtermate harvester onto GF/B Unifilterplates and washed with ice-cold Tris-HCl buffer (50 mM; pH 7.7; 6×0.5 ml). Filters were allowed to dry before adding scintillation fluid and counting in a Topcount scintillation counter. Percentage specific bound and competition binding curves were calculated using S-Plus software (Insightful).

NET = target: T3, NET (Rattus norvegicus, UniProt Q63380); assay: In vitro determination of NET reuptake inhibition ([3H]Nixosetine binding, rat brain cortex membranes)
T3 construct: Cortex from rat brain was collected and homogenised; from tissue; host or cells: rat brain cortex homogenate/membranes
T3 sequence (Q63380 1-617): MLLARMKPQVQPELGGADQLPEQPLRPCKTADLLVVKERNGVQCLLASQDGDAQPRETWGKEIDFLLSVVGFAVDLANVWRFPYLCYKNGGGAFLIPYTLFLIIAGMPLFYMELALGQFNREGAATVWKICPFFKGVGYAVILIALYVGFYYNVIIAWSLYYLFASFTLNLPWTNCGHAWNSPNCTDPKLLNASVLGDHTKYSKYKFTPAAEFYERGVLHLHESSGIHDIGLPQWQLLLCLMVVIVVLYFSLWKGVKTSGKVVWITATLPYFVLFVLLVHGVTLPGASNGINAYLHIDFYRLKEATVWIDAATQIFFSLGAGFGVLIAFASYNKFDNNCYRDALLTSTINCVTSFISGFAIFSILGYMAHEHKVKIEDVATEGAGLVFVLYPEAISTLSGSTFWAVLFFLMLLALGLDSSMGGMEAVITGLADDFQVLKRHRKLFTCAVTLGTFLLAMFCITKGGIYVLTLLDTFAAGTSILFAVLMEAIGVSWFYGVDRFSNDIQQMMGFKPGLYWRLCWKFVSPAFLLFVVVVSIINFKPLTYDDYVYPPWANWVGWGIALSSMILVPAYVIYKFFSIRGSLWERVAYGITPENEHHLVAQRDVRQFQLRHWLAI
Description: In vitro Determination of NET Reuptake Inhibition
Cortex from rat brain was collected and homogenised using an Ultra-Turrax T25 and a Dual homogeniser in ice-cold homogenising buffer containing Tris, NaCl and KCl (50 mM, 120 mM and 5 mM, respectively, pH 7.4) prior to dilution to an appropriate protein concentration optimised for specific and non-specific binding. […] Membrane-bound activity was detected by filtration through a Packard Filtermate harvester onto GF/B Unifilterplates, washed with ice-cold Tris-HCl buffer, containing NaCl and KCl (50 mM, 120 mM and 4 mM; pH 7.4; 6×0.5 ml). Filters were allowed to dry for 24 h before adding scintillation fluid. Scintillation fluid was allowed to saturate filters for 24 h before counting in a Topcount scintillation counter. Percentage specific bound and competition binding curves were calculated using S-Plus software (Insightful).

[3] = target: T4, human cloned 5-HT2C receptor, expressed in CHO cells (Homo sapiens, UniProt P28335); assay: In vitro radioligand binding affinity for 5-HT2C receptor ([3H]mesulergine)
T4 construct: expressed in transfected cells; host or cells: CHO cells
T4 sequence (P28335 33-458): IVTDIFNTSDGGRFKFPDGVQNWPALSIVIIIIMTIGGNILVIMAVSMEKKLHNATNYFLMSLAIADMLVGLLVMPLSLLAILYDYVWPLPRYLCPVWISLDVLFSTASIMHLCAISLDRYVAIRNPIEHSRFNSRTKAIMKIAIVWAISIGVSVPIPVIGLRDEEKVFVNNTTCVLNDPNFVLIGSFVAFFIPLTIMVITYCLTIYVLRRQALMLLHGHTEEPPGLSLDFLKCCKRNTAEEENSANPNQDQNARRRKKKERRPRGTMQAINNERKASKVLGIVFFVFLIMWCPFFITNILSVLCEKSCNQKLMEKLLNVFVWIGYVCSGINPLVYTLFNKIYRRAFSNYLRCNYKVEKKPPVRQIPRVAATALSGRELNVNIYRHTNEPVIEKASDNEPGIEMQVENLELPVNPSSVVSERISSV
Description: as §1
The interaction of the compounds of Formula (I) with 5-HT2A and 5-HT2C receptors was assessed in in vitro radioligand binding experiments. […] During the incubation, the radioligands bind to the receptor. When equilibrium of binding is reached, the receptor bound radioactivity is separated from the non-bound radioactivity, and the receptor bound activity is counted. The interaction of the test compounds with the receptors is assessed in competition binding experiments. Various concentrations of the test compound are added to the incubation mixture containing the tissue preparation and the radioligand. Binding of the radioligand will be inhibited by the test compound in proportion to its binding affinity and its concentration.

T1 sequence (P28223 whole entry): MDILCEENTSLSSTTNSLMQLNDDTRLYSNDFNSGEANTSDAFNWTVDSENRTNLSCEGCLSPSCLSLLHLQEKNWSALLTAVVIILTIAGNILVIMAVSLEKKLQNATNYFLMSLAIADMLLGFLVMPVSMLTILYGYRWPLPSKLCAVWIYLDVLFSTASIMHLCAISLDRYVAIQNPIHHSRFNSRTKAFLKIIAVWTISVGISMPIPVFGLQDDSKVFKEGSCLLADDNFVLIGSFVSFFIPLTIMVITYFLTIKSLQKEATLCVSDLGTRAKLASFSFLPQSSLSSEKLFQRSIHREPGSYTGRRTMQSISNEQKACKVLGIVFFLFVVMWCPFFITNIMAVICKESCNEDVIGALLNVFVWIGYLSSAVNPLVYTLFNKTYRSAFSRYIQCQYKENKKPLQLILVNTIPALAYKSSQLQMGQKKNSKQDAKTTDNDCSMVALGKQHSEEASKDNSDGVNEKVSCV

Structure (SMILES) | IC50 [1] | IC50 [2] | IC50 (NET) | IC50 [3] | melting point | NET Reuptake Inhibition (NET)
CN[C@@H]1CO[C@@H]2c3cc(F)ccc3Cc3ccccc3[C@H]2C1 (relative stereo) [compound 35, (3S *,4aR*,13bS*)-12-fluoro-N-methyl-2,3,4,4a,9,13b-hexahydrodibenzo[3,4:6,7]-cyclohepta[1,2-b]pyran-3-amine] | > 1 µM | > 1 µM | > 1 µM | – | – | –
COC(=O)N1[C@@H](CN(C)C)C[C@@H]2c3ccccc3Cc3ccc(F)cc3[C@H]21 [36a, Methyl(2R,3aR,12bS)-2-[(dimethylamino)methyl]-11-fluoro-3,3a,8,12b-tetrahydro-dibenzo[3,4:6,7]cyclohepta[1,2-b]pyrrole-1(2H)-carboxylate] | > 1 µM | > 1 µM | 0.692 µM | > 1 µM | – | –
CN(C)C[C@H]1C[C@@H]2c3ccccc3Cc3ccc(F)cc3[C@H]2N1C=O [36c, (2R,3aR,12bS)-2-[(dimethylamino)methyl]-11-fluoro-3,3a,8,12b-tetrahydrodibenzo[3,4:6,7]cyclohepta[1,2-b]pyrrole-1(2H)-carbaldehyde] | 0.55 µM | 4.9 µM | 0.224 µM | 0.0776 µM | – | –
CN(CCO)C[C@H]1C[C@@H]2c3ccccc3Cc3ccc(F)cc3[C@H]2N1 [43b, 2-[{[(2R,3aR,12bS)-11-fluoro-1,2,3,3a,8,12b-hexahydrodibenzo[3,4:6,7]-cyclohepta[1,2-b]pyrrol-2-yl]methyl}(methyl)amino]-ethanol] | 0.0676 µM | 0.437 µM | 0.0158 µM | 0.0891 µM | – | –
CN1CC(=O)N2[C@H](C[C@@H]3c4ccccc4Cc4ccc(F)cc4[C@H]32)C1 [compound 13, (5aS,14bR,15aR)-7-fluoro-2-methyl-1,2,3,5a,10,14b,15,15a-octahydro-4H-dibenzo-[3′,4′:6′,7′]cyclohepta[1′,2′:4,5]pyrrolo[1,2-a]pyrazin-4-one] | – | – | – | – | 139 to 141 °C | <5
N[C@@H]1CO[C@H]2c3cc(F)ccc3Cc3ccccc3[C@H]2C1 [compound 30, (3S,4aR,13bR)-12-fluoro-2,3,4,4a,9,13b-hexahydrodibenzo[3,4:6,7]cyclohepta-[1,2-b]pyran-3-amine] | – | – | 0.302 µM | – | 74 to 76 °C | –
